Where two headings read alike, the source gives them in different places.
What was measured:
normal nude mice [1] = experiment: Comparison of MSC and SLM as modulators of irinotecan toxicity in normal nude mice (Example 5, FIG. 4); format: in vivo
From the text: Each experimental group had 10 mice each from two (2) independent experiments.

normal nude mice [2] = system: normal nude mice
normal nude mice [3] = experiment: Effect of MSC on in vivo toxicity of irinotecan in normal nude mice (Example 1, FIG. 1); conditions: for protection provided by MSC: MSC 0.2 mg/mouse/day ×42 p.o.
Protocol: The data are combined from at least three independent experiments with five (5) animals per experiment.
To illustrate this embodiment, nude mice were administered 42 single, daily oral doses of 0.2 mg/mouse of MSC.

[4] = system: squamous cell carcinoma of the head and neck (A253); conditions: MSC 0.2 mg/mouse/d × 42 p.o. where combined
normal rats = experiment: Effect of MSC on toxicity of irinotecan in normal rats (Example 2, FIG. 2); format: in vivo
From the text: The data are combined from 2-5 independent experiments with four (4) animals for each experiment.

normal mice = experiment: Role of MSC dose in modulating irinotecan toxicity in normal mice (Example 6); format: in vivo
From the text: In order to identify the minimum dose of MSC in the successful modulation of drug induced toxicities. […] Those skilled in the art will recognize that by conducting experiments as described herein, optimal doses of selenium for reducing toxicity of other chemotherapeutic agents and other anticancer modalities can be easily determined.

normal nude mice [5] = experiment: Effect of MSC on toxicity of irinotecan, taxol, FU and cisplatin in normal nude mice (Example 4, FIG. 3); format: in vivo; conditions: toxic doses above MTD: irinotecan weekly, taxol 75 mg/kg, 5-FU 150 mg/kg, cisplatin 15 mg/kg once i.v.
From the text: In all cases drug doses used were toxic and above the maximum tolerated dose.

rats = experiment: Renal function test after CDDP ± MSC treatment in rats (Example 8); format: in vivo
Protocol: Reversal of renal toxicity induced by Cisplatin (CDDP). The dose limiting toxicity of therapeutic doses of cisplatin is kidney toxicity. Studies were performed to identify blood biological markers modified by CDDP and to evaluate the ability of MSC to reverse the process. Four groups of six animals each were used. The first group was untreated rats (control), the second group was given MSC at 0.75 mg/rat/day for 20 days and samples collected 2 hours after MSC administration on day 20. The third group was administered CDDP alone at 6 mg/kg by a single
i.v. injection and samples were collected on day 6. The fourth group was adminstered MSC (0.75 mg/rat/day for 20 days) with CDDP (6 mg/kg). CDDP was given 14 days after MSC administration and […] was given for 6 more days after CDDP administration. Samples were collected on day 6 after CDDP administration. Blood samples were collected at postmortem by cardiac puncture. Serum was obtained from the blood samples and urea nitrogen and creatinine concentrations were determined by standard methods using commercially kits (Ortho Clinical Diagnostics).

[6] = irinotecan 200 mg/kg/wk×4 i.v. alone
[7] = day 22, 24 h after third irinotecan dose, irinotecan 200 mg/kg, MSC 0.2 mg/mouse
[8] = irinotecan 100 mg/kg/wk ×4 i.v. alone
[9] = irinotecan 100 mg/kg/wk × 4 i.v.
[10] = serum, Mean ± SD, CDDP 6 mg/kg single i.v., MSC 0.75 mg/rat daily for 20 days

For `CCc1c2c(nc3ccc(OC(=O)N4CCC(N5CCCCC5)CC4)cc13)-c1cc3c(c(=O)n1C2)COC(=O)[C@]3(O)CC` [Irinotecan, irinotecan, reference compound], the lethality (normal nude mice [1]; [6]) was “approximately 55%”, the survivors (normal nude mice [1]; [6]) was 45% and the “HCT: haematocrit” value (normal nude mice [2]; [7]) was 40.9 ± 4.2%. The “MCH: mean corpuscular hemoglobin” value (normal nude mice [2]; [7]) was 17.5 ± 0.3 PICO Grams, the “MCHC: mean corpuscular hemoglobin concentration” value (normal nude mice [2]; [7]) was 32.7 ± 0.6% and the “PLT: platelets” value (normal nude mice [2]; [7]) was 836 ± 201 THSN/CU MM. For the same molecule, the “RBC: red blood cell” value (normal nude mice [2]; [7]) was 7.8 ± 1.0 Mill/CU MM, the “WBC: white blood cell” value (normal nude mice [2]; [7]) was 3.5 ± 0.5 THSN/CU MM and the “WBC: white blood cell” value (normal nude mice [2]; day 22, 24 h after third irinotecan dose, irinotecan 200 mg/kg, MSC 0.2 mg/mouse, listed as irinotecan) was 3.5 THSN/CU MM. For the same molecule, the “reduction in white blood cells” value (normal nude mice [2]; irinotecan 200 mg/kg/wk, versus control (9.4 to 3.5)) was “over 60%”, the animals survived treatment (normal nude mice [3]; [8]) was 100% and the weight loss (normal nude mice [3]; [8]) was “less than 20%”. The “animals died by the end of treatment” value (normal nude mice [3]; [6]) was 55%, the “maximum tolerated dose (MTD)” value (normal nude mice [3]; normal nude mice, irinotecan i.v. weekly ×4) was 100 mg/kg/wk and the “Response Rate (%) CR” value [4, 9] was 20%. The “Response Rate (%) PR” value [4, 9] was 20%, the “Survivors (%)” value [4, 9] was 100% and the “Survivors (%)” value ([4]; irinotecan 200 mg/kg/wk × 4 i.v.) was 45%. The “Survivors (%)” value ([4]; irinotecan 300 mg/kg/wk × 4 i.v.) was 0%, the animals died (normal rats; rats, irinotecan 200 mg/kg/day for 3 days i.v. (twice MTD), MSC 1 mg/kg/rat daily ×18 p.o.) was “all the animals” and the lethality (normal mice; irinotecan 200 mg/kg/wk×4 alone) was 50%.
`C[Se]C[C@H](N)C(=O)O` [MSC, methylselenocysteine] was tested, and the “effect of MSC on the survival rate of animals” value (normal nude mice [5]) was “protective effect”, the “reduction of irinotecan toxicity by selenium compound” value (normal nude mice [1]; irinotecan 200 mg/kg/wk×4 i.v., selenium compound p.o. daily for 28 days, first dose 7 days before irinotecan) was “equally effective in reducing toxicity” and the “prevention of neutropenia toxicity induced by irinotecan” value (normal nude mice [2]; MSC 0.2 mg/mouse/day with irinotecan 200 mg/kg/wk) was “effectively prevent neutropenia toxicity”. The “HCT: haematocrit” value (normal nude mice [2]; [7]) was 49.4 ± 2.4%, the “HGB: hemoglobin” value (normal nude mice [2]; [7]) was 16.8 ± 0.7 Gram/DL and the “MCH: mean corpuscular hemoglobin” value (normal nude mice [2]; [7]) was 18.4 ± 0.7 PICO Grams. For the same molecule, the “MCHC: mean corpuscular hemoglobin concentration” value (normal nude mice [2]; [7]) was 34.0 ± 0.7%, the “MCV: mean corpuscular volume” value (normal nude mice [2]; [7]) was 54.0 ± 1.0 CU Microns and the “PLT: platelets” value (normal nude mice [2]; [7]) was 756 ± 231 THSN/CU MM. For the same molecule, the “RBC: red blood cell” value (normal nude mice [2]; [7]) was 9.1 ± 0.5 Mill/CU MM, the “WBC: white blood cell” value (normal nude mice [2]; [7]) was 10.3 ± 4.5 THSN/CU MM and the “protection against hematologic toxicity induced by irinotecan” value (normal nude mice [2]; irinotecan 200 mg/kg/wk×4) was “complete protection”. For the same molecule, the “effect of adding MSC on overall body weight loss” value (normal nude mice [3]; irinotecan 100 mg/kg/wk ×4 i.v. + MSC 0.2 mg/mouse/day ×42 p.o.) was “decrease in overall body weight loss”, the “protection provided by MSC” value (normal nude mice [3]; irinotecan 200 mg/kg/wk×4 (twice MTD)) was 100% and the animals survived (normal nude mice [3]; irinotecan 200 mg/kg/wk×4 i.v. with MSC 0.2 mg/mouse/day ×42 p.o.) was 100%. The “protection provided by MSC” value (normal nude mice [3]; irinotecan 300 mg/kg/wk×4 (three times MTD)) was 80%, the “reversal of markers associated with kidney toxicity (BUN and creatinine)” value (rats; MSC 0.75 mg/rat/day with CDDP 6 mg/kg) was “highly effective” and the “Blood Urea Nitrogen” value (rats; [10]) was 12.7 ± 1.2 mg/dL. The “Creatinine” value (rats; [10]) was 0.30 ± 0.00 mg/dL, the “animals with severe diarrhea completely protected by MSC” value (normal rats; rats (FIG. 2), irinotecan 200 mg/kg dose) was 50% and the “MSC dose sufficient for complete protection against lethal doses of irinotecan” value (normal mice; MSC 0.01 to 0.2 mg/mouse/day×42 with irinotecan 200 mg/kg/wk×4) was ≤ 0.01 mg/mouse. For the same molecule, the “lethality with the combination” value (normal mice; MSC as low as 0.01 mg/mouse with irinotecan 200 mg/kg/wk×4) was “no lethality”.
